Measured values from patent publication US20240043427A1 (Gilead Sciences, Inc., priority 2020, published 2024).
pIC50: −log10 of the molar value.

Molecular target: CD73 (Homo sapiens (Human), UniProt P21589)
Assay type: biochemical
Settings: 1 mM NaH2PO4 in enzyme buffer, CD73 0.3 nM, AMP 15 uM

Chain of CD73 (P21589 27-574): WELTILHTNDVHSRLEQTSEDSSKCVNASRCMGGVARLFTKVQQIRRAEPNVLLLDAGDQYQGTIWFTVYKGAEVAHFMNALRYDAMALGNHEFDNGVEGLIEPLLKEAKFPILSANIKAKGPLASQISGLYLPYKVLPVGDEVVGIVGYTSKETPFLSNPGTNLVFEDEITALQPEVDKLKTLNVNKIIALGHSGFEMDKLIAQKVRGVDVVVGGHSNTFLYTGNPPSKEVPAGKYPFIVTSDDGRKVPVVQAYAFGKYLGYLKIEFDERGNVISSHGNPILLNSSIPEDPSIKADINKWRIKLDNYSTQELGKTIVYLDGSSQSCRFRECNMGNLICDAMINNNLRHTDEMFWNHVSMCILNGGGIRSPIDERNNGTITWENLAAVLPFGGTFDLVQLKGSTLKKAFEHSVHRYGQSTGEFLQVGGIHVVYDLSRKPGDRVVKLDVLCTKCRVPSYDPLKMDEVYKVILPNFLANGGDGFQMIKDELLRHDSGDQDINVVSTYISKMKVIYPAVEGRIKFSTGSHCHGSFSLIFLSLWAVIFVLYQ

| pIC50 | SMILES |
| --- | --- |
| 8.78 | O=C(c1cccc([C@H]2C[C@@H]2c2cc(-c3c[nH]c(=O)[nH]c3=O)nn3ccnc23)c1)N1CCC(F)(F)C1 (racemic) [Example 306, 5-(8-((1S,2S)-2-(3-(3,3-difluoropyrrolidine-1-carbonyl)phenyl)cyclopropyl)imidazo[1,2-b]pyridazin-6-yl)pyrimidine-2,4(1H,3H)-dione] |
| 7.79 | CC1(C)CCN(C(=O)c2ccc([C@H]3C[C@@H]3c3cc(-c4c[nH]c(=O)[nH]c4=O)nn4ccnc34)cc2)C1 (racemic) [Example 307, 5-(8-((1S,2S)-2-(4-(3,3-dimethylpyrrolidine-1-carbonyl)phenyl)cyclopropyl)imidazo[1,2-b]pyridazin-6-yl)pyrimidine-2,4(1H,3H)-dione] |
| 8.26 | CC1(C)CCN(C(=O)c2cccc([C@H]3C[C@@H]3c3cc(-c4c[nH]c(=O)[nH]c4=O)nn4ccnc34)c2)C1 (racemic) [Example 308, 5-(8-((1S,2S)-2-(3-(3,3-dimethylpyrrolidine-1-carbonyl)phenyl)cyclopropyl)imidazo[1,2-b]pyridazin-6-yl)pyrimidine-2,4(1H,3H)-dione] |
| 7.37 | O=c1[nH]cc(-c2cc([C@H]3C[C@@H]3c3ccccc3OC(F)(F)F)c3nccn3n2)c(=O)[nH]1 (racemic) [Example 309, 5-(8-((1S,2S)-2-(2-(trifluoromethoxy)phenyl)cyclopropyl)imidazo[1,2-b]pyridazin-6-yl)pyrimidine-2,4(1H,3H)-dione] |
| 8.33 | N#Cc1cncc([C@H]2C[C@@H]2c2cc(-c3c[nH]c(=O)[nH]c3=O)nn3ccnc23)c1 (racemic) [Example 311, 5-((1S,2S)-2-(6-(2,4-dioxo-1,2,3,4-tetrahydropyrimidin-5-yl)imidazo[1,2-b]pyridazin-8-yl)cyclopropyl)nicotinonitrile] |
| 8.89 | CNC(=O)c1ccc([C@H]2C[C@@H]2c2cc(-c3c[nH]c(=O)[nH]c3=O)nn3c(F)cnc23)cc1 (racemic) [Example 312, 4-((1S,2S)-2-(6-(2,4-dioxo-1,2,3,4-tetrahydropyrimidin-5-yl)-3-fluoroimidazo[1,2-b]pyridazin-8-yl)cyclopropyl)-N-methylbenzamide] |
| 8.95 | Cc1nc2cc([C@H]3C[C@@H]3c3cc(-c4c[nH]c(=O)[nH]c4=O)nn4ccnc34)ccc2s1 (racemic) [Example 321, 5-(8-((1S,2S)-2-(2-methylbenzo[d]thiazol-5-yl)cyclopropyl)imidazo[1,2-b]pyridazin-6-yl)pyrimidine-2,4(1H,3H)-dione] |
| 9.04 | Cn1ncc2ccc([C@H]3C[C@@H]3c3cc(-c4c[nH]c(=O)[nH]c4=O)nn4ccnc34)cc21 (racemic) [Example 326, 5-(8-((1S,2S)-2-(1-methyl-1H-indazol-6-yl)cyclopropyl)imidazo[1,2-b]pyridazin-6-yl)pyrimidine-2,4(1H,3H)-dione] |
| 8.76 | O=c1[nH]cc(-c2cc([C@H]3C[C@@H]3c3ccc(OC(F)(F)F)cc3)c3nccn3n2)c(=O)[nH]1 (racemic) [Example 359, 5-(8-((1S,2S)-2-(4-(trifluoromethoxy)phenyl)cyclopropyl)imidazo[1,2-b]pyridazin-6-yl)pyrimidine-2,4(1H,3H)-dione] |
| 9.04 | O=c1[nH]cc(-c2cc([C@H]3C[C@@H]3c3ccc4c(c3)OC(F)(F)O4)c3nccn3n2)c(=O)[nH]1 (racemic) [Example 360, 5-(8-((1S,2S)-2-(2,2-difluorobenzo[d][1,3]dioxol-5-yl)cyclopropyl)imidazo[1,2-b]pyridazin-6-yl)pyrimidine-2,4(1H,3H)-dione] |
| 8.70 | O=c1[nH]cc(-c2cc([C@H]3C[C@@H]3c3ccc(OCC(F)(F)F)cn3)c3nccn3n2)c(=O)[nH]1 (racemic) [Example 363, 5-(8-((1S,2S)-2-(5-(2,2,2-trifluoroethoxy)pyridin-2-yl)cyclopropyl)imidazo[1,2-b]pyridazin-6-yl)pyrimidine-2,4(1H,3H)-dione] |
